Patent US4526894A, “Pharmaceutically active 4-hydroxy-3-benzoyl-2-quinolone derivatives” (Nippon Shinyaku Co. Ltd., priority 1982, dated 1985)
Structures can show the parent of a compound that is named as a salt. Where two headings read alike, the source gives them in different places.

What was measured:
[1] = test system: carrageenin edema in SD-strain rats; test: Carrageenin edema at hind foot of rats (anti-inflammatory action); format: in vivo, rat; conditions: for inhibition in vivo at 200 mg/kg: Rattus norvegicus, po, 3 h, read-out: % Inhibition of carrageenin edema
Method: The anti-inflammatory action of the compounds of the present invention were evaluated by measuring the inhibition against carrageein edema as set forth below.
Carrageenin edema at hind foot of rats:
SD-strain rats of body weights of around 150 grams were used, each group consisting of five rats. A solution (0.1 ml) of 0.5% carrageenin dissolved in physiological saline water was hypodermically injected into right hind foot pat of the rats and, one hour prior to the injection of carrageenin, 200 mg/kg of test compound was given per os. Foot volumes of the rats before the carrageenin treatment and those of three hours after the treatment were measured and the differences were compared with those of the control group to determine the effect of the compounds.

[2] = test system: SRS-A (slow reacting substance of anaphylaxis); test: Anti-SRS-A action using isolated ileus of guinea pigs
Method: Anti-SRS-As action (An anti-action against slow reacting substance of anaphylaxis).
Hartley strain male guinea pigs (300 to 350 grams body weight) are killed and 1.0 to 1.5 cm of ileus is immeidiately excised from ileocecal parts and is suspended in 10 ml of Tyrode solution (95% O2 -5% CO2 saturation) containing 10^-7 g/ml of atropine and 10^-6 g/ml of pyrilamine. SRS-A (20 units) (the amount of SRS-A showing the same shrinkage as 5 ng of histamine is defined as 1 unit) prepared by using sensitized guinea pig lung is given to cause shrinkage there. Then antagonistic action of test compounds treated five minutes ago against the shrinkage is measured and recorded via isotonic transducer.
Inhibition Ratio of Test Compd (%)=(1-A'/A)×100
in which A' is a height of shrinkage of SRS-A+test compound and A is that of SRS-A.

male mice = test: Acute oral toxicity in mice (lethal ratio); format: in vivo; conditions: 400 mg/kg oral, two weeks, four mice per group
Method: Acute toxicity was determined two weeks after oral administration of 400 mg/kg to male mice. Four mice (denominator) are used in each group and the dead numbers are given as the numerator. The compounds of the present invention show little, if any, toxicity.
Lethal ratios for all other compounds are 0/4 at doses of […]. It is therefore apparent that they are all safe compounds.

[3] = test system: passive cutaneous anaphylaxis (DNP-As antigen) in Wister strain rats; test: passive cutaneous anaphylaxis (PCA) assay in rats; format: in vivo; conditions: 10 mg/kg oral, one hour before antigen; for inhibition in vivo at 10 mg/kg: Rattus norvegicus, po, 1 h, read-out: PCA Inhibition Ratio %
Method: (i) Antiserum abundant in homocytotropic antibody is prepared by the same method as Tada and Okumura did (cf. Journal of Immunology, vol. 106, page 1002, 1976). Thus, 1 mg (calculated as an amount of protein) of DNP-As (2,4-dinitrophenyl-coupled ascaris extract) prepared by methods of Strejan and Campbell (Journal of Immunology, vol. 98, p. 893, 1971) and of Eisen (Journal of Amer. Chem. Soc., vol. 85, p 4593, 1953) and 1×10^10pertussis vaccine are administered to each paw of Wister strain rats (180 to 200 grams body weights) by dividing the dose by four. Five days later, 0.5 mg of DNP-As is administered into muscle of back. Eight days later from the initial immunization, blood is taken from descending aorta under anesthetizing with ether, the resulting serum is stored at -80° and is melted before use.
(ii) Effect of tested compounds is investigated as follows:
Anti-serum obtained by the method (i) is diluted with physiological saline solution double by double successively and 0.05 ml of each diluted solution is administered into back of Wister strain rats (140 to 160 grams body weight) subcutaneously. After 72 hours, a solution of 2 mg (calculated as protein) of DNP-As and 2.5 mg of Evans Blue dissolved in 1 ml of physiological saline solution is administered intraveously at a dose of 5 ml/kg. After 30 minutes from antigen solution administration, the animals are killed and diameters of blue spots appeared at the place where antiserum is administered are measured. The PCA test is conducted by the same method as already described using a diluted solutions of antiserum which always show 10 mm or more of spot diameters and the effect of the test compounds is judged. Thus antiserum diluted solutions are administered to two places in back. Test compounds are administered orally at the dose of 10 mg/kg one hour before administration of antigen solution. From the skin of reacted parts of killed animals, leaked or emitted dyestuff is extracted and the amount of the dyestuff is measured. The inhibition ratio is calculated by the following expression:
Inhibition Ratio=(1-A'/A)×100
in which A' is an amount of dyestuff in the group treated with the test compounds and A is that in the control group.

[4] = 200 mg/kg per os one hour before carrageenin, 3 hours after
[5] = 10^-6 M; guinea pig ileus, SRS-A 20 units; 5 min, 1 µM

Row | SMILES | inhibition in vivo at 200 mg/kg [1, 4] [%] | SRS-A Inhibition Ratio % [2, 5] [%] | inhibition in vivo at 10 mg/kg [3] [%] | other results
1 | CCCCCCc1ccc2[nH]c(=O)c(C(=O)c3ccc(OC)cc3)c(O)c2c1 [Example 59] | 12.8 |  |  | 
2 | O=C(c1ccccc1Cl)c1c(O)c2ccccc2[nH]c1=O [Example 35, 3-(2-chlorobenzoyl)-4-hydroxy-2-quinolone] |  | 32.6 | 45.6 | Lethal Ratio (dead/treated) (male mice): 0/4
3 | CCCCCc1ccc(C(=O)c2c(O)c3ccccc3[nH]c2=O)cc1 [Example 46, 4-hydroxy-3-(4-n-pentylbenzoyl)-2-quinolone] |  | 26.9 | 3.2 | 
4 | CC(C)c1ccc2[nH]c(=O)c(C(=O)c3ccccc3Cl)c(O)c2c1 [Example 36, 3-(2-chlorobenzoyl)-4-hydroxy-6-isopropyl-2-quinolone] |  | 60.0 | 12.4 | 
5 | CCCCCCc1ccc2[nH]c(=O)c(C(=O)c3ccccc3)c(O)c2c1 [Example 55] |  |  | 13.6 | % Inhibition of carrageenin edema [1, 4]: 10.0%; SRS-A Inhibition Ratio % ([2]; 10^-6 M, guinea pig ileus, SRS-A 20 units, 5 min, 1 µM): 85.6%
6 | CC(C)c1ccc2[nH]c(=O)c(C(=O)c3ccccc3)c(O)c2c1 [Example 5, 3-Benzoyl-4-hydroxy-6-isopropyl-2-quinoline] | 32.1 |  |  | 
7 | CCCCc1ccc2[nH]c(=O)c(C(=O)c3ccccc3)c(O)c2c1 [Example 22, 3-benzoy-6-n-butyl-4-hydroxy-2-quinolone] |  | 39.5 | 17.4 | 
8 | Cc1cc2[nH]c(=O)c(C(=O)c3ccccc3)c(O)c2cc1C [Example 20, 3,-benzoyl-6,7-dimethyl-4-hydroxy-2-quinolone] |  | 23.5 | 17.4 | 
9 | CC(=O)Oc1ccccc1C(=O)O [Acetylsalicylic Acid, reference compound] |  |  |  | inhibition in vivo at 200 mg/kg [1]: 31.6%
10 | O=C(c1ccccc1)c1c(O)c2cc(Cl)ccc2[nH]c1=O [Example 1, 3-Benzoyl-6-chloro-4-hydroxy-2-quinolone] | 42.1 |  |  | 
11 | O=C(c1ccccc1)c1c(O)c2ccc([N+](=O)[O-])cc2[nH]c1=O [Example 10, 3-benzoyl-4-hydroxy-7-nitro-2-quinolone] |  | 22.3 | 33.4 | Lethal Ratio (dead/treated) (male mice): 0/4
12 | Cc1ccc2[nH]c(=O)c(C(=O)c3ccccc3)c(O)c2c1 [Example 17, 3-benzoyl-4-hydroxy-6-methyl-2-quinolone] |  | 21.9 | 35.4 | 
13 | COc1ccc(C(=O)c2c(O)c3cccc(C)c3[nH]c2=O)cc1OC [Example 31, 3-(3,4-dimethoxybenzoyl)-4-hydroxy-8-methyl-2-quinolone] | 77.5 | 20.5 | 20.4 | 
14 | Cc1cc(C)c2[nH]c(=O)c(C(=O)c3ccccc3Cl)c(O)c2c1 [Example 37, 3-(2-chlorobenzoyl)-6,8-dimethyl-4-hydroxy-2-quinolone] |  | 28.3 | 20.8 | 
15 | O=C(c1ccc([N+](=O)[O-])cc1)c1c(O)c2ccccc2[nH]c1=O [Example 47, 4-hydroxy-3-(4-nitrobenzoyl)-2-quinolone] |  | 22.0 | 49.4 | Lethal Ratio (dead/treated) (male mice): 0/4
16 | COc1ccc(C(=O)c2c(O)c3ccc([N+](=O)[O-])cc3[nH]c2=O)c(OC)c1OC [Example 54, 4-hydroxy-7-nitro-3-(2,3,4-trimethoxybenzoyl)-2-quinolone] | 13.1 |  |  | 
17 | COc1ccccc1C(=O)c1c(O)c2ccccc2[nH]c1=O [Example 24, 4-hydroxy-3-(2-methoxybenzoyl)-2-quinolone] |  | 20.2 | 24.7 | 
18 | CCCCCCc1ccc2[nH]c(=O)c(C(=O)c3ccccc3)c(O)c2c1 [Example 7, 3-Benzoyl-6-n-hexyl-4-hydroxy-2-quinolone sodium salt] |  |  |  | SRS-A Inhibition Ratio % ([2]; 10^-6 M, guinea pig ileus, SRS-A 20 units, 5 min, 1 µM, sodium salt): 91.2%; PCA Inhibition Ratio % ([3]; rat, sodium salt, 10 mg/kg): 15.2%
19 | COc1ccc(C(=O)c2c(O)c3ccccc3[nH]c2=O)cc1OC [Example 2, 3-(3,4-Dimethoxybenzoyl)-4-hydroxy-2-quinolone] |  | 24.2 | 25.5 | 
20 | COc1ccc(C(=O)c2c(O)c3ccccc3[nH]c2=O)c(OC)c1OC [Example 32, 4-hydroxy-3-(2,3,4-trimethoxybenzoyl)-2-quinolone] |  | 100 | 16.3 | SRS-A Inhibition Ratio % (value in parentheses) ([2]; 10^-7 M; guinea pig ileus, SRS-A 20 units; 5 min, 0.1 µM): 83.3%; Lethal Ratio (dead/treated) (male mice): 0/4
21 | O=C(O)c1ccc(C(=O)c2c(O)c3ccccc3[nH]c2=O)cc1 [Example 51, 3-(4-carboxybenzoyl)-4-hydroxy-2-quinolone] |  | 50.0 | 7.4 | 
22 | Cc1ccc(C(=O)c2c(O)c3ccccc3[nH]c2=O)c(C)c1 [Example 43, 3-(2,4-dimethylbenzoyl)-4-hydroxy-2-quinolone] | 15.7 |  |  | 
23 | O=C(c1cccc(C(F)(F)F)c1)c1c(O)c2ccccc2[nH]c1=O [Example 44, 4-hydroxy-3-(3-trifluoromethylbenzoyl)-2-quinolone] | 15.9 |  |  | 
24 | Cc1ccc2c(O)c(C(=O)c3ccccc3)c(=O)[nH]c2c1 [Example 18, 3-benzoyl-4-hydroxy-7-methyl-2-quinolone] |  | 21.3 | 26 | 
25 | COc1ccc(C(=O)c2c(O)c3ccccc3[nH]c2=O)c(OC)c1 [Example 28, 3-(2,4-dimethoxybenzoyl)-4-hydroxy-2-quinolone] |  | 42.9 | 21.2 | 
26 | O=C(c1ccc(Cl)cc1)c1c(O)c2ccccc2[nH]c1=O [Example 39, 3-(4-chlorobenzoyl)-4-hydroxy-2-quinolone] |  | 27.0 | 19.8 | 
27 | CC(C)c1ccc2[nH]c(=O)c(C(=O)c3ccc([N+](=O)[O-])cc3)c(O)c2c1 [Example 48, 4-hydroxy-6-isopropyl-3-(4-nitrobenzoyl)-2-quinolone] | 12.5 |  | 8.6 | 
28 | COC(=O)c1cccc2[nH]c(=O)c(C(=O)c3ccccc3)c(O)c12 [Example 3, Methyl 3-benzoyl-4-hydroxy-2-quinolone-5-carboxylate] | 32.8 | 26.4 | 26.9 | 
29 | COc1ccc(C(=O)c2c(O)c3cc(C)ccc3[nH]c2=O)cc1OC [Example 29, 3-(3,4-dimethoxybenzoyl)-4-hydroxy-6-methyl-2-quinolone] |  | 42.1 | 12.1 | 
30 | COc1ccc(C(=O)c2c(O)c3ccc([N+](=O)[O-])cc3[nH]c2=O)cc1OC [Example 30, 3-(3,4-dimethoxybenzoyl)-4-hydroxy-7-nitro-2-quinolone] | 21.3 | 26.7 | 18.7 | 
